# Experimental data published in patent publication US20140323504A1, “Pyrazolo[4,3-c]Pyridine Derivatives As Kinase Inhibitors” (Cellzome Limited, priority 2011, published 2014).
# pIC50: −log10 of the molar value. Where two headings read alike, the source gives them in different places.
# Experiments:
# BLK = biological target: T1, BLK (Homo sapiens, UniProt P51451); test: Kinobeads assay with quantitative mass spectrometry, BLK; format: binding; details: Jurkat/Ramos lysate, read-out: BLK inhibition value (IC50)
# T1 construct: endogenous in cells; host or cells: 1:1 mix of Jurkat and Ramos cell lysates
# Description: (§1) Selected compounds of the present invention as described in the previous examples were tested in a Kinobeads™ assay as described (WO-A 2006/134056; Bantscheff et al., 2007. Nature Bioteclmol. 25, 1035-1044).
# (§2) Compounds were incubated with cell lysate aliquots (1:1 mix of Jurkat and Ramos cell lysates) for 45 minutes at 4° C. and allowed to bind to the proteins in the lysate sample. Then the Kinobeads™ affinity matrix was added to capture proteins that were not interacting with the previously added compound. After this two hour incubation step at 4° C. beads were separated from the lysate and bead bound proteins were eluted in SDS sample buffer and subsequently separated by SDS-Polyacrylamide gel electrophoresis. The gel was stained with colloidal Coomassie and stained areas of each gel lane were cut out and subjected to in-gel proteolytic digestion with trypsin. Peptides originating from the different gel areas were labeled with isobaric tagging reagents (TMT reagents, Thermofisher) as shown in Table 7. The TMT reagents are a set of multiplexed, amine-specific, stable isotope reagents that can label peptides in up to six different biological samples enabling simultaneous identification and quantitation of peptides. The combined samples were fractionated using reversed-phase chromatography at pH 11 and fractions were subsequently analyzed with a nano-flow liquid chromatography system coupled online to a tandem mass spectrometer (LC-MSMS) experiment followed by reporter ion quantification in the MSMS spectra (Ross et al., 2004. Mol. Cell. Proteomics 3(12):1154-1169; Dayon et al., 2008. Anal. Chem. 80(8):2921-2931; Thompson et al., 2003. Anal. Chem. 75(8):1895-1904). Further experimental protocols can be found in WO2006/134056 and previous publications (Bantscheff et al., 2007. Nat. Biotechnol. 25, 1035-1044; Bantscheff et al., 2011. Nat. Biotechnol. 29(3):255-265).
# BTK [1] = biological target: T2, BTK (Homo sapiens, UniProt Q06187); test: Radiometric protein kinase assay (33PanQinase, ProQinase), BTK; format: biochemical; details: read-out: BTK enzyme assay IC50
# T2 construct: purchased ProQinase GmbH, Freiburg, Germany
# Description: A radiometric protein kinase assay (^33PanQinase® Activity Assay; ProQinase GmbH, Freiburg, Germany) was used for measuring the kinase activity of the protein kinases BLK, BTK, ITK and JAK3. All kinase assays were performed in 96-well FlashPlates™ from PerkinElmer (Boston, Mass., USA) in a 50 μl reaction volume. The reaction cocktail was pipetted in four steps in the following order: • 20 μl of assay buffer (standard buffer) • 5 μl of ATP solution (in H2O) • 5 μl of test compound (in 10% DMSO) • 10 μl of substrate/10 μl of enzyme solution (premixed)
# The reaction cocktails were incubated at 30° C. for 60 minutes. The reaction was stopped with 50 μl of 2% (v/v) H3PO4, plates were aspirated and washed two times with 200 μl 0.9% (w/v) NaCl. Incorporation of ^33Pi was determined with a microplate scintillation counter (Microbeta, Wallac). All assays were performed with a BeckmanCoulter/SAGIAN™ Core System.
# BTK [2] = biological target: T2, BTK; test: Kinobeads assay with quantitative mass spectrometry, BTK; format: binding; details: Jurkat/Ramos lysate, read-out: BTK inhibition value (IC50)
# Description: as §1, §2
# ITK = biological target: T3, ITK (Homo sapiens, UniProt Q08881); test: Kinobeads assay with quantitative mass spectrometry, ITK; format: binding; details: Jurkat/Ramos lysate, read-out: ITK inhibition value (IC50)
# T3 construct: purchased ProQinase GmbH, Freiburg, Germany
# T3 sequence (Q08881 1-620): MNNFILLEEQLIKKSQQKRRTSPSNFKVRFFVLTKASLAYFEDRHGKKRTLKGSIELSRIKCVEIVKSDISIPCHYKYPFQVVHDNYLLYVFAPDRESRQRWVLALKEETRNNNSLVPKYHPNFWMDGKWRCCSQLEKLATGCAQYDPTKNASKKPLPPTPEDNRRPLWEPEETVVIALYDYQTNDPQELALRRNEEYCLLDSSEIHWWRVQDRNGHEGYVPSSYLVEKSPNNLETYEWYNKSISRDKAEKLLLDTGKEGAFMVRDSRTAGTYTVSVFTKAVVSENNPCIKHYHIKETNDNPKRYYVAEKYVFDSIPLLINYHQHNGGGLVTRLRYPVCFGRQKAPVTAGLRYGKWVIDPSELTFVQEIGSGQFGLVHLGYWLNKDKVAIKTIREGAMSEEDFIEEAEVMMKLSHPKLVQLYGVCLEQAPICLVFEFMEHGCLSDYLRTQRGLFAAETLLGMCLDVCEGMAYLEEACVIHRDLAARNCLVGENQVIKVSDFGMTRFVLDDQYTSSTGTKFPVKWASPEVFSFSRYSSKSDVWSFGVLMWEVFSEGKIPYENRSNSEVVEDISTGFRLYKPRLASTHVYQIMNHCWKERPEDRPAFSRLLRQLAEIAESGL
# Description: as §1, §2
# [3] = test system: STAT5 phosphorylation in IL-2 stimulated YT cells; test: Cell assay with washout of compounds (pSTAT5, YT cells, MSD); format: cell-based, human; details: for IC50: Homo sapiens; for retention of activity after washing: up to 4 hours after washing
# Description: This time course experiment allows determination as to whether the pharmacological effect of the tested compounds persists over time even after the compound is removed from the cell samples.
# Human YT cells were grown as described above. Cells were harvested by centrifugation and resuspended in RPMI0.5% heat-inactivated FBS. 3×10^5 cells were seeded in 60 μl per well in a round-bottomed 96 well plate (BD-Falcon, 353077).
# Test compounds were dissolved in DMSO and a 1:3 dilution series (9 steps) was prepared. To generate a dose response curve, 30 μl of fourfold concentrated compound in 4% DMSO/RPMI/0.5% FBS were added to each cell sample in the 96 well plate resulting in a final DMSO concentration of 1% DMSO. Cells were incubated for one hour in a humidified incubator (37° C., 5% CO2). After incubation cells were washed twice by centrifugation and replacement of media (RPMI/0.5% FBS), with the exception of the time 0 plate. Washed cells were incubated for 30 min, 1, 2 and 4 hours in a humidified incubator (37° C., 5% CO2) prior to stimulation with IL-2. To each well 30 μl of a fourfold concentrated IL-2 solution (Recombinant human IL-2, Peprotech 200-02; 120 nM solution in RPMI) was added and incubated for 30 minutes at room temperature. Cells were lysed by adding 30 μl of 5× lysis buffer (MSD lysis buffer) and incubated for 10 minutes at 4° C. with gentle shaking.
# The effect of compounds on STATS phosphorylation was determined in lysates using the MSD MULTI-SPOT® 96 4-spot phosphor-STAT5a,b whole cell lysatc kit (MesoScale Discovery, K150IGD-3) according to the manufacturer's protocol. Data were analysed in BioAssay using the nonlinear regression for a sigmoidal dose-response with a variable slope and IC50 values were determined.
# [4] = 0.5 h, read-out: pSTAT5 inhibition pIC50, 30 min after washout, IL-2 stimulated YT cells, 30 min after washout (converted)
# [5] = 2 h, read-out: pSTAT5 inhibition pIC50, 2 hours after washout, IL-2 stimulated YT cells, 2 hours after washout (converted)
# [6] = 4 h, IL-2 stimulated YT cells, 4 hours after washout, read-out: pSTAT5 inhibition pIC50, 4 hours after washout (converted)
# T2 sequence (Q06187 whole entry): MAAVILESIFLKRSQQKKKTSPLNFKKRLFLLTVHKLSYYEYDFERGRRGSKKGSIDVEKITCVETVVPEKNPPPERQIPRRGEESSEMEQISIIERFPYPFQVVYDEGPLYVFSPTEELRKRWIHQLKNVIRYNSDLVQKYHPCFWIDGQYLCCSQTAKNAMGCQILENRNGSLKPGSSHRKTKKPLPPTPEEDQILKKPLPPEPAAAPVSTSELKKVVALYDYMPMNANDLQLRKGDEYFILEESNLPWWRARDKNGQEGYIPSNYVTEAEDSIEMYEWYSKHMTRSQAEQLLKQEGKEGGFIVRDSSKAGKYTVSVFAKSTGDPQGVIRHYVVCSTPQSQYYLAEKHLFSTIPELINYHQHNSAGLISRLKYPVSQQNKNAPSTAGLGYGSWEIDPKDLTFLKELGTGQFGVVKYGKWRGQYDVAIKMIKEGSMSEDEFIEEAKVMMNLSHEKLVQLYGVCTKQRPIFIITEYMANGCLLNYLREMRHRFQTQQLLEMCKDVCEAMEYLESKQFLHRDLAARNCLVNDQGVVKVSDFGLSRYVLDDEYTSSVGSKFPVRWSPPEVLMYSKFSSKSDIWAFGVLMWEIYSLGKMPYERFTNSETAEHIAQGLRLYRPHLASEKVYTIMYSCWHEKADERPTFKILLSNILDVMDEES
# T1 sequence (P51451 whole entry): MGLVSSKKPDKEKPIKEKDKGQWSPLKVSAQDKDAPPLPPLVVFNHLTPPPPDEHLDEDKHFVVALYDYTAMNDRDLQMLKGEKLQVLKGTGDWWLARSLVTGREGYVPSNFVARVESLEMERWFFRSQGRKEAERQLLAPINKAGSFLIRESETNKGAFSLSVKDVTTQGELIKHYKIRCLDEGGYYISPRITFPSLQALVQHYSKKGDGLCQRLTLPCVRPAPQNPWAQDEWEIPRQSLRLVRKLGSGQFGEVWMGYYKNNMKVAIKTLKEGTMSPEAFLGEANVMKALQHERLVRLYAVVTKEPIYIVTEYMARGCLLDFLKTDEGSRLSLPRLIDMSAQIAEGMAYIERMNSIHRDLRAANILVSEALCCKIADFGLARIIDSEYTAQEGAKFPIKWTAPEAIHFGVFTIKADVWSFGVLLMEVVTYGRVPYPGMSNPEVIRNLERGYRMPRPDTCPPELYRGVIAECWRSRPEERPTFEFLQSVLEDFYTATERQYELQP
SMILES,pIC50 (BLK),pIC50 (BTK [1]),pIC50 (BTK [2]),pIC50 (ITK),"IC50 [3, 4] [nM]","IC50 [3, 5] [nM]","IC50 [3, 6] [nM]",retention of activity after washing ([3]; YT cells),"activity 30 minutes after the washing of cells ([3]; YT cells, 30 minutes after washing)"
"C=CC(=O)Nc1cccc(Cn2ncc3cnc(Nc4cnn(C)c4)nc32)c1 [Example 1, N-(3-((6-((1-Methyl-1H-pyrazol-4-yl)amino)-1H-pyrazolo[3,4-d]pyrimidin-1-yl)methyl)phenyl)acrylamide]",7.70,7.70,7.92,7.07,200,63.1,100,retain activity for up to 4 hours after washing with some drop in activity,
"C=CS(=O)(=O)Nc1cccc(Cn2ncc3cnc(Nc4cnn(C)c4)nc32)c1 [Example 4, N-(3-((6-((1-Methyl-1H-pyrazol-4-yl)amino)-1H-pyrazolo[3,4-d]pyrimidin-1-yl)methyl)phenyl)ethenesulfonamide]",,7.70,,,,,,,
"CC(=O)Nc1cccc(Cn2ncc3cnc(Nc4cnn(C)c4)nc32)c1 [compound 2, N-(3-((6-((1-methyl-1H-pyrazol-4-yl)amino)-1H-pyrazolo[3,4-d]pyrimidin-1-yl)methyl)phenyl)acetamide, reference compound]",,5.70,,,,,,,completely lost

# Continued by rising pIC50 (BTK [1]), values first:
pIC50 (BLK),pIC50 (BTK [1]),pIC50 (BTK [2]),pIC50 (ITK),"IC50 [3, 4] [nM]","IC50 [3, 5] [nM]","IC50 [3, 6] [nM]",SMILES,retention of activity after washing ([3]; YT cells),"activity 30 minutes after the washing of cells ([3]; YT cells, 30 minutes after washing)"
6.39,6.49,7.14,6.09,,,,"C=CC(=O)Nc1cc(Cn2ncc3cnc(Nc4cnn(C)c4)nc32)ccc1F [Example 2, N-(2-Fluoro-5-((6-((1-methyl-1H-pyrazol-4-yl)amino)-1H-pyrazolo[3,4-c]pyrimidin-1-yl)methyl)phenyl)acrylamide]",,
7.92,9.00,7.92,7.92,631,79.4,126,"C#CC(=O)Nc1cccc(Cn2ncc3cnc(Nc4cnn(C)c4)nc32)c1 [Example 3, N-(3-((6-((1-Methyl-1H-pyrazol-4-yl)amino)-1H-pyrazolo[3,4-d]pyrimidin-1-yl)methyl)phenyl)propiolamide]",retain activity for up to 4 hours after washing with some drop in activity,
